One series relates to T1, AbLac.
T1 construct: gene lcc1
Conditions: 0% acetone pre-incubation; pH 3.0 citrate-phosphate; 30 °C.

Another series deals with T2, TvLac.
T2 construct: gene LCC1
Conditions: 0% acetone pre-incubation; pH 3.0 citrate-phosphate; 30 °C.

Substrate in the series “purified protein”: CCn1c(=NN=c2sc3cc(S(=O)(=O)O)ccc3n2CC)sc2cc(S(=O)(=O)O)ccc21
The series can be described thus: purified protein. The series is classed as biochemical, Cerrena. Conditions: 0% acetone pre-incubation, pH 3.0 citrate-phosphate, 30 °C, 1.25–800 μM ABTS.

Take `CCn1c(=NN=c2sc3cc(S(=O)(=O)O)ccc3n2CC)sc2cc(S(=O)(=O)O)ccc21` [ABTS, 2,2′-azino-bis(3-ethylbenzothiazoline-6-sulphonic acid)]: the Michaelis constant (Km) with AbLac is 212 ± 19.5 µM; in the series with TvLac, 29 ± 2.1 µM.

B1: DLac (Cerrena) (protein)
chain: AVGPVTDIHIVNKDIAPDGFSRPSVLAGGTFPGPLITGQKGDNFKLNVVDDLTDASMLKSTSIHWHGFFQKGTNWADGPAFVNQCPISTGNSFLYNFQVPDQAGTYWYHSHLSTQYCDGLRGAFVVYDPTDPHKALYDVDDESTVITLADWYHTLARQIVGVAIADTTLINGLGRNTNGPADAALAVINVEAGKRYRLRLVSISCDPNYVFSIDNHDFNIIEVDGVNSKPLNVDSIQIFAGQRYSAVLNANQPVGNYWVRANPNLGTTGFTGGINSAILRYKGAPVAEPTTTQTTSTKPLQEPNLRPLVSMPVPGSATPGGVDVVHNLILGFSAGKFTINGAAFTPPSVPVLLQILSGTTNAQDLLPSGSVITLPIGKTIELTLAAGVLGGPHPFHLHGHNFHVVRSAGQTTPNYVDPIVRDVVNTGGTGDNVTIRFTTDNPGPWFLHCHIDWHLEAGFAVVFAEGVNQTNAANPTPADWNNLCNIYNALADGDK
notes: source not restated here; 494 C atoms superimposed in the crystal structures
As to B1, in “purified protein”, the Km worked out at 24 ± 3.9 µM and the kcat/Km was 1.47e+09 ± 3.1e+08 M⁻¹ s⁻¹.

As a reminder, the Km is the substrate concentration at which the rate is half of its maximum. Usually kcat/Km stands for the second-order rate constant that governs catalysis at low substrate concentration.

The record behind these values is PMC6611822, “Enhancement of laccase activity by pre-incubation with organic solvents” (Scientific Reports, 2019).
